Measurements published in patent US20230270754A1, “COMBINATION THERAPY FOR INHALATION ADMINISTRATION” (Chemo Research, S.L., priority 2020, published 2023).

Experiments:
Type in all cases: physicochemical
[1] = Active ingredient content after filtration (assay by Reverse Phase HPLC), Example 1; conditions: triple combination BDP/GB/FF; for Formulation 1 Assay (%) active ingredient content compared to the theoretical amount: Formulation 1: 70% Ethanol; for Formulation 2 Assay (%) active ingredient content compared to the theoretical amount: Formulation 2: 96% Ethanol
Experimental: Both formulations were filtrated, and individual assay of all active ingredients were tested by Reverse Phase HPLC.
Three independent Reverse Phase HPLC analytical methods were used for the determination of each active ingredient in all the analyses.

[2] = APSD by NGI, Example 2 Trimbow pMDI vs soft mist inhaler
Experimental: (§1) The in vitro aerodynamic assessment was carried using a next generation impactor, NGI (Copley Scientific Ltd), equipped with a mouthpiece adapter for the insertion of the inhaler, an induction port and an internal filter holder (IFH) to capture the smaller particles. The product was tested as per procedure detailed in the European pharmacopoeia chapter 2.9.18 (apparatus E) and US Pharmacopeia chapter <601> (apparatus 6) for Soft Mist Inhalers.
The NGI was cooled to 5° C. for at least 75 min. The cooling chamber was then opened and, after 30 minutes, the NGI was connected to a HCP5 vacuum pump (Copley Scientific Ltd). […]
(§2) After the required actuations, the particles deposited on the different surfaces of the impactor were extracted using a suitable diluent (methanol) and with the help of a Gentle Rocker (Copley Scientific Ltd).
(§3) Data analysis. The NGI results were plotted against the stage cut-off diameter as the mass recovered from the induction port to the filter. Fine particle fraction (FPF %), mass median aerodynamic diameter (MMAD), fine particle dose (FPD) were determined from the analysis of the NGI data.
(§4) Results are expressed as the mean value of two NGIs analysis.

[3] = APSD by NGI, Example 5 Symbicort pMDI vs soft mist inhaler
Experimental: The in vitro aerodynamic particle size distribution of both formulations was evaluated using an impactor, the next generation impactor, NGI (Copley Scientific Ltd) equipped with a mouthpiece adapter for the insertion of the inhaler, an induction port and an internal filter holder (IFH) to capture the smaller particles. The product was tested as per procedure detailed in the European and US Pharmacopoeia for Soft Mist Inhalers and pMDIs.
(§5) The NGI was cooled to 5° C. for at least 75 min. The cooling chamber was then opened and, after 30 minutes, the NGI was connected to a HCP5 vacuum pump (Copley Scientific Ltd). For each experiment, ten doses were discharged per NGI actuated at 28.3 L/min for 5 seconds each.
as §2, with “(75/25 v/v MeOH/water)” for “(methanol)”, “Ltd). Active ingredients were then quantified by HPLC, with the same methods described in example 4.” for “Ltd).”
Data analysis. The NGI was plotted against the stage cut-off diameter as the mass recovered from the induction port to the filter. Fine particle fraction (FPF %), and mass median aerodynamic diameter (MMAD) were determined from the analysis of the NGI data.
as §4

[4] = APSD by NGI, Example 3 Foster pMDI vs soft mist inhaler
Experimental: as §1, with “European” for “European pharmacopoeia chapter 2.9.18 (apparatus E)”, “Pharmacopeia” for “Pharmacopeia chapter <601> (apparatus 6)”, “Inhalers and pMDIs.” for “Inhalers.”
The NGI was cooled to 5° C. for at least 75 min. The cooling chamber was then opened and, after 30 minutes, the NGI was connected to a HCP5 vacuum pump (Copley Scientific Ltd). For each experiment, ten doses were discharged into the NGI at 30 L/min for 5 seconds each.
as §2, with “Ltd). Active ingredients were then quantified by HPLC, with the same methods used for the Example 1.” for “Ltd).”
Data analysis. The NGI was plotted against the stage cut-off diameter as the mass recovered from the induction port to the filter. Fine particle fraction (FPF %) and mass median aerodynamic diameter (MMAD) were determined from the analysis of the NGI data.
as §4

[5] = APSD by NGI, Example 4 budesonide/formoterol 70% vs 96% ethanol, soft mist inhaler
Experimental: Typical System Suitability Criteria applies as per USP <621> requirements.
For the APSD evaluation Formulation 1 and 2 were filled into cartridges compatible with a soft mist inhaler (Respimat®). The in vitro aerodynamic particle size distribution of both formulations was evaluated using an impactor, the next generation impactor, NGI (Copley Scientific Ltd) equipped with a mouthpiece adapter for the insertion of the inhaler, an induction port and an internal filter holder (IFH) to capture the smaller particles. The product was tested as per procedure detailed in the European pharmacopoeia chapter 2.9.18 (apparatus E) and US Pharmacopeia chapter <601> (apparatus 6) for Soft Mist Inhalers.
as §5
After the required actuations, the particles deposited on the different surfaces of the impactor were extracted using a suitable diluent (75/25 v/v MeOH/water) and with the help of a Gentle Rocker (Copley Scientific Ltd). Active ingredients were then quantified by HPLC as described above.
as §3, §4

[6] = Delivered dose by dose unit sampling apparatus (DUSA), Example 2
Text: Active pharmaceutical ingredients (APIs) deposited in the sampling apparatus were quantitatively recovered with a DUSA shaker (Copley Scientific Ltd) and methanol. APIs were, then, quantified by HPLC with the same methods described in Example 1.
Results are expressed as the average of 5 measurements.

[7] = Soft Mist Inhaler (1 actuation), triple combination in 96% ethanol
[8] = Soft Mist Inhaler (1 actuation), budesonide/formoterol in 96% ethanol
[9] = Soft Mist Inhaler (1 actuation), double combination BDP/FF in 96% ethanol
[10] = Trimbow pMDI (2 actuations), table title: Foster pMDI (2 actuation)
[11] = Soft Mist Inhaler (Respimat) 1 actuation, triple combination in 96% ethanol

| Compound | Formulation 1 Assay (%) active ingredient content compared to the theoretical amount [1] [%] | Formulation 2 Assay (%) active ingredient content compared to the theoretical amount [1] [%] | FPD [2, 7] [µg] | FPF [2, 7] [%] | IP (induction port deposition) [2, 7] [%] | FPD ([2]; Trimbow pMDI (2 actuations)) [µg] | FPF ([2]; Trimbow pMDI (2 actuations)) [%] | IP (induction port deposition) ([2]; Trimbow pMDI (2 actuations)) [%] | FPF (%) [4, 9] [%] | MMAD (μm) [4, 9] [μm] | FPF (%) [4, 10] [%] | MMAD (μm) [4, 10] [μm] | DUSA (μg) delivered dose [6, 11] [µg] | DUSA (μg) delivered dose ([6]; Trimbow pMDI 1 actuation) [µg] | further results |
| --- | --- | --- | --- | --- | --- | --- | --- | --- | --- | --- | --- | --- | --- | --- | --- |
| COc1ccc(C[C@@H](C)NC[C@H](O)c2ccc(O)c(NC=O)c2)cc1.O.O.O=C(O)/C=C/C(=O)O (racemic) [Formoterol Fumarate] | 93.8 | 100.3 | 5.3 | 87.8 | 8.3 | 5.2 | 44.6 | 53.4 | 90.4 | 1.2 | 45.8 | 1.2 | 6.1 | 5.7 | FPF (%) [3, 8]: 89.7%; MMAD (μm) [3, 8]: 1.1 μm; FPF (%) ([3]; Symbicort pMDI (1 actuation)): 58.7%; MMAD (μm) ([3]; Symbicort pMDI (1 actuation)): 3.3 μm; FPD ([5]; Formulation 1 (70% EtOH)): 3.3 µg; FPF ([5]; Formulation 1 (70% EtOH)): 68.4%; MMAD ([5]; Formulation 1 (70% EtOH)): 2.7 μm; FPF ([5]; Formulation 2 (96% EtOH)): 89.7% |
| CCC(=O)OCC(=O)[C@@]1(OC(=O)CC)[C@@H](C)C[C@H]2[C@@H]3CCC4=CC(=O)C=C[C@]4(C)[C@@]3(Cl)[C@@H](O)C[C@@]21C [Beclometasone Dipropionate, 9-chloro-11β,17,21-trihydroxy-16β-methylpregna-1,4-diene-3, 20-dione 17,21-dipropionate] | 40.1 | 99.7 | 91.7 | 87.9 | 8.3 | 86.0 | 42.9 | 52.9 | 91.3 | 1.1 | 49.4 | 1.2 | 97.1 | 98.4 | MMAD [2, 7]: 1.2 μm; MMAD ([2]; Trimbow pMDI (2 actuations)): 1.2 μm |
